Experimental data from ChEMBL document CHEMBL4433219, “EC18 as a Tool To Understand the Role of HCN4 Channels in Mediating Hyperpolarization-Activated Current in Tissues” (ACS Med Chem Lett, 2019).

Tests used:
[1] = system: Cardiac muscle of left ventricle; test: (§1) Effect on cardiac electrophysiological profile in Mongrel perfused dog heart left ventricular muscle stimulated at basic cycle length of 1000 milliseconds assessed as Vmax at 1 uM measured after 25 mins by glass capillary microelectrode based electrophysiology assay (reference value: 244.6 +/- 30.87 V/s); type: functional, Canis lupus familiaris
[2] = system: Cardiac muscle of left ventricle; test: as §1, with “action potential time duration at 75% of repolarization” for “Vmax”, “199.7” for “244.6”, “16.87 milliseconds)” for “30.87 V/s)”; type: functional, Canis lupus familiaris
Mus musculus = organism: Mus musculus; test: Effect on voltage-dependent K+ channel in C57BL/6J mouse thalamocortical relay neuron assessed as inhibition of step depolarization-induced K+ outward current at 10 uM by whole cell patch clamp assay relative to control
[3] = system: Cardiac muscle of left ventricle; test: as §1, with “as action potential time duration” for “as Vmax”, “at 50% of repolarization at 10” for “at 1”, “value: 176” for “value: 244.6”, “+/- 16.36 milliseconds)” for “+/- 30.87 V/s)”; type: functional, Canis lupus familiaris
[4] = system: Cardiac muscle of left ventricle; test: as §1, with “action potential time duration at 90% of repolarization” for “Vmax”, “212.5” for “244.6”, “16.25 milliseconds)” for “30.87 V/s)”; type: functional, Canis lupus familiaris
[5] = target: T1, Potassium/sodium hyperpolarization-activated cyclic nucleotide-gated channel 4 (Mus musculus, UniProt O70507); test: Inhibition of HCN4 in C57BL/6J mouse thalamocortical relay neuron assessed as reduction in hyperpolarization current at holding potential of -120 mV by whole-cell patch clamp assay
T1 sequence (O70507 whole entry): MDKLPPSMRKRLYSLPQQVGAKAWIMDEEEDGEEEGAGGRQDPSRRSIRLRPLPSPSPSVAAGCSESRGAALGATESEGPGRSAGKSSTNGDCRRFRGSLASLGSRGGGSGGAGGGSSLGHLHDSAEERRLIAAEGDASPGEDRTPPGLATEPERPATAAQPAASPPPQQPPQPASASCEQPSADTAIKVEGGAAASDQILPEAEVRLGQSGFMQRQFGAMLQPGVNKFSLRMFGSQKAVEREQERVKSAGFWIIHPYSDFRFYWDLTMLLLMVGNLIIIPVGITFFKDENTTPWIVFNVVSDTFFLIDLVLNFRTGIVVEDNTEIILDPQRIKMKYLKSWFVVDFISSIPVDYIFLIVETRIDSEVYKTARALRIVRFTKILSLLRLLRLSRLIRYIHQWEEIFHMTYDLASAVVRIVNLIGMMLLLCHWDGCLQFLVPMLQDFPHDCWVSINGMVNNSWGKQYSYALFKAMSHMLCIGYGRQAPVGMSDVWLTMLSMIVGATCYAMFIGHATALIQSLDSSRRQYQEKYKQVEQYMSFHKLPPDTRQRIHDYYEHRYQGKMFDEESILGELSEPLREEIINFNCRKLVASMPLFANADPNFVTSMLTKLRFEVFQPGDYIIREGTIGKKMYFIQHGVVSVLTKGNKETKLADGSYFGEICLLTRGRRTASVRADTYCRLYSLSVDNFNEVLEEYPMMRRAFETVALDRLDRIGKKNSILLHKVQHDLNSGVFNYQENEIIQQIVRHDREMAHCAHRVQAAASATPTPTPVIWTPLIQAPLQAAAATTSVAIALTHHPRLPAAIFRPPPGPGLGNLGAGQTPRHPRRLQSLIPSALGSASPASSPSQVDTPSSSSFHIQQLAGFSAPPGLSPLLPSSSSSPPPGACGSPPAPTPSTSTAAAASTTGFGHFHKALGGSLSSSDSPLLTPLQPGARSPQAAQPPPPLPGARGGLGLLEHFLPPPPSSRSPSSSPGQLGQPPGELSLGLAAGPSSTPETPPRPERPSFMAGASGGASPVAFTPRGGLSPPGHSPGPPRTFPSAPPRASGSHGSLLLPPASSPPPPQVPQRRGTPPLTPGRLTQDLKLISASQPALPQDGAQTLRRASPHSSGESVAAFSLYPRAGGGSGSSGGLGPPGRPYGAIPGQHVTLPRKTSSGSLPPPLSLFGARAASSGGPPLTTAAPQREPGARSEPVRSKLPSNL

[6] = Negative chronotropic activity at HCN4 in guinea-pig spontaneously beating isolated atria; conditions: Cavia porcellus
[7] = system: Cardiac muscle of left ventricle; test: as §1, with “action potential amplitude” for “Vmax”, “104.1” for “244.6”, “2.7 mV)” for “30.87 V/s)”; type: functional, Canis lupus familiaris
[8] = system: Cardiac muscle of left ventricle; test: as §1, with “maximum diastolic potential” for “Vmax”, “-83.8” for “244.6”, “2.28 mV)” for “30.87 V/s)”; type: functional, Canis lupus familiaris
[9] = system: Cardiac muscle of left ventricle; test: as §1, with “action potential time duration at 10% of repolarization” for “Vmax”, “69.9” for “244.6”, “10.84 milliseconds)” for “30.87 V/s)”; type: functional, Canis lupus familiaris
[10] = system: Cardiac muscle of left ventricle; test: as §1, with “as action potential amplitude” for “as Vmax”, “at 10” for “at 1”, “value: 104.1” for “value: 244.6”, “+/- 2.7 mV)” for “+/- 30.87 V/s)”; type: functional, Canis lupus familiaris
[11] = target: T2, Potassium/sodium hyperpolarization-activated cyclic nucleotide-gated channel 2 (Mus musculus, UniProt O88703); test: Inhibition of mouse HCN2 expressed in HEK293 cells assessed as reduction in hyperpolarization activated current at holding potential of -80 mV by patch clamp assay; type: cell-based
T2 sequence (O88703 whole entry): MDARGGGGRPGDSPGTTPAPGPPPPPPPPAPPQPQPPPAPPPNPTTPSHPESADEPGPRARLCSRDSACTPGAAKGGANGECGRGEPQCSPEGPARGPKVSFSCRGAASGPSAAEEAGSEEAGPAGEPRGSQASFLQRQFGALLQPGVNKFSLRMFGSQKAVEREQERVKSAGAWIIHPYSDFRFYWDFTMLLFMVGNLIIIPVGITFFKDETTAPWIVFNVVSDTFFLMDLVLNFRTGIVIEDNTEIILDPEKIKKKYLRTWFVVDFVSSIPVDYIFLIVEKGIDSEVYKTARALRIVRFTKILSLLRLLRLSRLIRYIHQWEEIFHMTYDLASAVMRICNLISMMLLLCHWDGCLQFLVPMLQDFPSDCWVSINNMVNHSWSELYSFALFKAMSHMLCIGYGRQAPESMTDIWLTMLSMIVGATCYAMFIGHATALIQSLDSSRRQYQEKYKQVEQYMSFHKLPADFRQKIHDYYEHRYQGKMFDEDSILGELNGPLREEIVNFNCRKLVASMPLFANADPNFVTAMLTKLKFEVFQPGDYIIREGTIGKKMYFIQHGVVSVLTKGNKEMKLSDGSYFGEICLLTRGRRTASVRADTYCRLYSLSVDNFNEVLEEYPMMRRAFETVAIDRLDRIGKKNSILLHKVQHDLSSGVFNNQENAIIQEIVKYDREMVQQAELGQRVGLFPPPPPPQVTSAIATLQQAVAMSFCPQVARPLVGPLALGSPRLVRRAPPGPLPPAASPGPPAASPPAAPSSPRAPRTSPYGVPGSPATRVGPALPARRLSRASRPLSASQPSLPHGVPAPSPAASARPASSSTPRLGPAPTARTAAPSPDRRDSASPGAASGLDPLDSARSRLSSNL

[12] = Selectivity ratio of EC50 for human HCN2 to EC50 for mouse HCN4

- inhibition (Mus musculus): 14.5%
- EC50 [5]: 11 µM
- IC50 [6]: 9.9 µM
- EC50 [11]: 19.3 µM
- Ratio EC50 [12]: 5
SMILES: COc1ccc(CCN(C)[C@@H]2CCC[C@H](N3CCc4cc(OC)c(OC)cc4CC3=O)C2)cc1OC (racemic)
- Activity [1]: 232.9 V/s
- Time [2]: 191.9 ms
- Time [3]: 179.9 ms
- Time [4]: 204.9 ms
- Activity [7]: 103.1 mV
- Activity [8]: -84 mV
- Time [9]: 58.6 ms
- Activity [10]: 102.3 mV
